Legend:
[1] = target: T1, Broad substrate specificity ATP-binding cassette transporter ABCG2 (Homo sapiens, UniProt Q9UNQ0); assay: TP_TRANSPORTER: efflux of Hoechst33342 in BCRP-expressing Sf9 cells; assay type: functional
T1 sequence (Q9UNQ0 whole entry): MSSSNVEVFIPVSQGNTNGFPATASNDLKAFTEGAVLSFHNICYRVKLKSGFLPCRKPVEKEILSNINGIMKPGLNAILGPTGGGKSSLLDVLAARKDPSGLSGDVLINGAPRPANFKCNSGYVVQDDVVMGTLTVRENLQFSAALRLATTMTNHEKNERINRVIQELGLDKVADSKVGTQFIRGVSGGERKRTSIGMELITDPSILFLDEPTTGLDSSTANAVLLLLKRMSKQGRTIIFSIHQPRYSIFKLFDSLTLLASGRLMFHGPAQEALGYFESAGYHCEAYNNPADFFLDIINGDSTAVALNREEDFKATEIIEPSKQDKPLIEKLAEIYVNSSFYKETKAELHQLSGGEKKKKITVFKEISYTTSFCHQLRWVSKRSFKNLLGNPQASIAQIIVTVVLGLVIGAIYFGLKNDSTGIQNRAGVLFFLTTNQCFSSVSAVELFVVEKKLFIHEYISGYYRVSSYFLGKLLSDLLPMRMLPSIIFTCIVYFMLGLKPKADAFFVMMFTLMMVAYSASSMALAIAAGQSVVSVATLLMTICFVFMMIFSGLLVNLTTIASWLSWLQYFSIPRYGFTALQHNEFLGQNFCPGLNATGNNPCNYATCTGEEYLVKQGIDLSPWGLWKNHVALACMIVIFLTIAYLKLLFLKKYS

[2] = target: T1, Broad substrate specificity ATP-binding cassette transporter ABCG2; assay: TP_TRANSPORTER: stimulation of ATPase activity (0.1~1 u M) in BCRP-expressing Sf9 cells; assay type: functional, cell membranes, Membrane

Row | IC50 [1] [nM] | Activity [2] | Compound
1 | 200 | inhibitor [] | CC#CC(=O)Nc1ccc2ncnc(Nc3cccc(Br)c3)c2c1
2 |  | inhibitor [] | COc1cc2ncnc(Nc3ccc(F)c(Cl)c3)c2cc1OCCCN1CCOCC1 [GEFITINIB]
